Data taken from patent publication US8329950B2, “Process for preparation of trans 4-(3,4-Dichlorophenyl)-1,2,3,4-tetrahydro-1Napthalenamine” (Sunovion Pharmaceuticals Inc., priority 2005, dated 2012).
“And” between values parts separate entries of the source, which are not always exact repeats. Equal values may be shown once.

Columns and labels:
[1] = biological target: T1, functional uptake of norepinephrine (NE) (Rattus norvegicus, UniProt Q63380); assay: biochemical
T1 construct: synaptosomes isolated at Cerep in a 0.32 M sucrose buffer from a male Wistar rat hypothalamus; tissue Cerep; host or cells: male Wistar rat hypothalamus synaptosomes
Procedure: Characterization of norepinephrine uptake is performed using synaptosomes isolated at Cerep in a 0.32 M sucrose buffer from a male Wistar rat hypothalamus. The uptake of radiolabeled norepinephrine by synaptosomes (100 μg of proteins/point) is allowed by incubating them in a deep well for 20 minutes at 37° C. in presence of test compounds and [^3H]-norepinephrine (0.1 μCi/point).
Synaptosomes and [^3H]-norepinephrine are prepared in a Krebs buffer pH 7.4 containing 25 mM NaHCO3, 11 mM glucose and 50 μM ascorbic acid. This incubation buffer is oxygenated during 5 minutes before incubation. Basal control is incubated for 20 minutes at 4° C. in order to avoid any uptake. Following this incubation the uptake is stopped by filtration through an “unifilter 96-wells GFB “Packard plate washed with Krebs buffer containing 25 mM NaHCO3 in order to eliminate the free [^3H]-norepinephrine. The radioactivity associated to the synaptosomes retained onto the unifilter corresponding to the uptake is then measured with a microplate scintillation counter Topcount, Packard using a scintillation liquid microscint 0, Packard.

[2] = biological target: T2, functional uptake of dopamine (DA) (Rattus norvegicus, UniProt P23977); assay: Dopamine functional uptake assay in rat striatum synaptosomes; format: biochemical; conditions: for inhibition of DA uptake: tested initially at 10 μM
T2 construct: synaptosomes isolated at Cerep in a 0.32 M sucrose buffer from a male Wistar rat striatum; tissue Cerep; host or cells: male Wistar rat striatum synaptosomes
Procedure: Characterization of dopamine uptake is performed using synaptosomes isolated at Cerep in a 0.32 M sucrose buffer from a male Wistar rat striatum. The uptake of radiolabelled dopamine by synaptosomes (20 μg of proteins/point) is allowed by incubating them in a deep well for 15 minutes at 37° C. in presence of test compounds and [^3H]-dopamine (0.1 μCi/point).
Synaptosomes and [^3H]-dopamine are prepared in a Krebs buffer pH 7.4 containing 25 mM NaHCO3, 11 mM glucose and 50 μM ascorbic acid. This incubation buffer is oxygenated during 5 minutes before incubation. Basal control is incubated for 15 minutes at 4° C. in order to avoid any uptake. Following this incubation the uptake is stopped by filtration through an “unifilter 96-wells GFB “Packard plate washed with Krebs buffer containing 25 mM NaHCO3 in order to eliminate the free [^3H]-dopamine. The radioactivity associated to the synaptosomes retained onto the unifilter corresponding to the uptake is then measured with a microplate scintillation counter Topcount, Packard using a scintillation liquid microscint 0, Packard.

mice = assay: Behavioral Despair Test (Porsolt swim test) in mice; format: in vivo; conditions: for Immobility Duration, Mean: N = 10
[3] = tested on: women with insomnia secondary to perimenopause or menopause; assay: Clinical study, number of nocturnal awakenings due to hot flashes; format: in vivo, human; conditions: 3 mg nightly, Intent-to-Treat; for Nocturnal Awakenings due to Hot Flashes, Change from Baseline, Least Squares Means (SE): ANCOVA; for Nocturnal Awakenings due to Hot Flashes, Observed Value, Least Squares Means (SE): ANOVA
Procedure: (§1) The study was aimed at observing efficacy of eszopiclone 3 mg compared to placebo in the treatment of insomnia secondary to perimenopause or menopause.
(§2) The study was a multicenter, randomized, double-blind, placebo-controlled, parallel-group study. […] The primary method of analysis compared the post-randomization results between the two treatment groups.
(§3) Subjects were women with insomnia secondary to perimenopause or menopause. Subjects were perimenopausal or menopausal and had insomnia symptoms including ≧45 minutes sleep latency (SL) and total sleep time (TST)≦6 hours. Perimenopausal/menopausal symptoms predated the onset of sleep disturbance symptoms. The patient population was predominately Caucasian (77.2%). The mean age was 49, with a range of 40-60.
(§4) A total of 410 subjects were randomized. Among them, 201 received 3 mg of eszopiclone (ESZ) nightly (at bedtime) for four weeks and 209 received matching placebo (PBO).

[4] = tested on: women with insomnia secondary to perimenopause or menopause; assay: Clinical study, Physician Global Assessment; format: in vivo, human; conditions: Visit 5 (Week 4), 3 mg nightly; for Physician Global Assessment, Observed Value, Least Squares Means (SE): ANOVA
Procedure: as §1, §2, §3, §4
A Physician Global Assessment was administered at Week 4, the end of the double-blind treatment period.

[5] = biological target: T3, functional uptake of serotonin (5-HT) (Rattus norvegicus, UniProt P31652); assay: Serotonin functional uptake assay in rat synaptosomes; format: biochemical; conditions: Table 6; tested initially at 10 μM
T3 construct: synaptosomes isolated in a 0.32 M sucrose buffer from a male Wistar rat cortex; from tissue; host or cells: male Wistar rat cortex (whole brain) synaptosomes
Procedure: Characterization of serotonin uptake is performed using synaptosomes isolated in a 0.32 M sucrose buffer from a male Wistar rat cortex. The uptake of radiolabelled serotonin by synaptosomes (100 μg of proteins/point) is allowed by incubating them in a deep well for 15 minutes at 37° C. in presence of test compounds and [3H]5-hydroxytryptamin (0.1 μCi/point).
Synaptosomes and [^3H]5-hydroxytryptamine are prepared in a Krebs buffer pH 7.4 containing 25 mM NaHCO3, 11 mM glucose and 50 μM ascorbic acid. This incubation buffer is oxygenated during 5 minutes before incubation. Basal control is incubated for 15 minutes at 4° C. in order to avoid any uptake. Following this incubation the uptake is stopped by filtration through an “unifilter 96-wells GFB “Packard plate washed with Krebs buffer containing 25 mM NaHCO3 in order to eliminate the free [^3H]5-hydroxytryptamine. The radioactivity associated to the synaptosomes retained onto the unifilter corresponding to the uptake is then measured with a microplate scintillation counter Topcount, Packard using a scintillation liquid microscint 0, Packard.

[6] = score 1 = Very much improved to 7 = Very much worse

T1 sequence (Q63380 1-617): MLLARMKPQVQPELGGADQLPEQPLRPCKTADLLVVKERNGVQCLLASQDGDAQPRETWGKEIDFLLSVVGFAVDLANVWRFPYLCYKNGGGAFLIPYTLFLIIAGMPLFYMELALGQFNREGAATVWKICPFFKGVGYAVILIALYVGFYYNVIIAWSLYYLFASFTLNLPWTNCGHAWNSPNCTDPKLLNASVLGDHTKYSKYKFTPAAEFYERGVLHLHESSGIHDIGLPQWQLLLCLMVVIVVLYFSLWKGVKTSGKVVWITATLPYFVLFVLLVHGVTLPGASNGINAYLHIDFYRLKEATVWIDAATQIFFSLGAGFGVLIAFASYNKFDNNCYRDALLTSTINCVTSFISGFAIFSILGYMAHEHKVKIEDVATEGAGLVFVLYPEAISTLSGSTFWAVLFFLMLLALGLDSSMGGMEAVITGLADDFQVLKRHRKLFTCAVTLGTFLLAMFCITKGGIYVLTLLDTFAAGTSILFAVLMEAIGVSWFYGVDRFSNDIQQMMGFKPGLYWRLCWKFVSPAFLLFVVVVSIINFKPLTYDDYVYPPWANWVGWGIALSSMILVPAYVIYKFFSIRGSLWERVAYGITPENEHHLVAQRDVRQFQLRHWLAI
T2 sequence (P23977 whole entry): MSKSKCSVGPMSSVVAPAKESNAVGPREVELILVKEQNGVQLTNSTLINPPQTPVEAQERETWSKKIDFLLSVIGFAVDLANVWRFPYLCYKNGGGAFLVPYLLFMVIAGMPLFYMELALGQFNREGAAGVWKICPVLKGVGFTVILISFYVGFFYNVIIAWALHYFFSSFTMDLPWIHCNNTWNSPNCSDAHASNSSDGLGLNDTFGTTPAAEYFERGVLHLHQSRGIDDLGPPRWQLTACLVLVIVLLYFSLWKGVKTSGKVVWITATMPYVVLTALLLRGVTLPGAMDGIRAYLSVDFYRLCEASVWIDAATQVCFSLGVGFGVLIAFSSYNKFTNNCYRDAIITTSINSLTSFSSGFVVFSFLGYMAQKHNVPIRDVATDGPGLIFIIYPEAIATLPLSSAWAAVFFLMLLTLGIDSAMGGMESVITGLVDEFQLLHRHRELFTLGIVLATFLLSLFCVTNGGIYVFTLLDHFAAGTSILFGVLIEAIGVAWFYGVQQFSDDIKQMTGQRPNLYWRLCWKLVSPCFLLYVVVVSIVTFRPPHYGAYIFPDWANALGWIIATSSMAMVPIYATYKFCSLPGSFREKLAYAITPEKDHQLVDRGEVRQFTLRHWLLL
T3 sequence (P31652 whole entry): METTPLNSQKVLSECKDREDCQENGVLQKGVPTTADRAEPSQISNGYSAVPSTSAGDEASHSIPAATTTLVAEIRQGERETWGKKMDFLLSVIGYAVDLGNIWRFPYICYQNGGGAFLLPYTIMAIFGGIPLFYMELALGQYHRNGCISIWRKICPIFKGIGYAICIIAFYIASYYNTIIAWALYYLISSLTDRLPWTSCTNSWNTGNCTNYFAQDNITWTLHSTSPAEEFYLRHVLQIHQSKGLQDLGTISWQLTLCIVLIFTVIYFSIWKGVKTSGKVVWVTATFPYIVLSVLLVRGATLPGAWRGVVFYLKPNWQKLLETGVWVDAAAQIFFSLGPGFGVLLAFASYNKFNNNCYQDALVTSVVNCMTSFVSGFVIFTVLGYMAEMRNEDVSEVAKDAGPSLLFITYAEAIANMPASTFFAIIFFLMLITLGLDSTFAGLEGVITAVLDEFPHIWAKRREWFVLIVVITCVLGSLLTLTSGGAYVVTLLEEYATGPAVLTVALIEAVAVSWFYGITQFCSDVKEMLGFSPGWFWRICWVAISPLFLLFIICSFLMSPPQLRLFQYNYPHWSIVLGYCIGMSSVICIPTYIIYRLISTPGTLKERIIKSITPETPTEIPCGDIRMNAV

Structure (SMILES): N[C@@H]1CC[C@@H](c2ccc(Cl)c(Cl)c2)c2ccccc21 (relative stereo) [P + Q, trans 4-(3,4-dichlorophenyl)-1,2,3,4-tetrahydro-1-napthalenamine]
- IC50 ([1]; Table 6, rat synaptosomes): 8.8 nM
- IC50 ([2]; Table 6, rat synaptosomes): 7.1 nM

Structure (SMILES): CN(C)CCCN1c2ccccc2CCc2ccccc21 [imipramine]
- Immobility Duration, individual mice (mice; 10 mg/kg): 89 s and 85 s and 73 s and 37 s and 74 s and 95 s and 5 s and 33 s
- Immobility Duration, Mean (mice; 10 mg/kg): 58 s
- inhibition at 10 µM ([1]; read-out: inhibition of NE uptake): < 50%
- inhibition of DA uptake ([2]; Table 6): — (— <50% inhibition)
- inhibition at 10 µM ([2]; read-out: inhibition of DA uptake): < 50%

Structure (SMILES): N[C@@H]1CC[C@@H](c2ccc(Cl)c(Cl)c2)c2ccccc21 [P, (1R,4S)-trans 4-(3,4-dichlorophenyl)-1,2,3,4-tetrahydro-1-napthalenamine]
- Immobility Duration, individual mice (mice; 0.03 mg/kg intraperitoneal): 129 s and 99 s and 107 s and 159 s and 102 s and 115 s and 122 s and 128 s and 120 s and 96 s
- Immobility Duration, Mean (mice; 0.03 mg/kg intraperitoneal): 118 s
- Immobility Duration, individual mice (mice; 0.1 mg/kg intraperitoneal): 100 s and 103 s and 76 s and 109 s and 56 s and 98 s and 62 s and 119 s and 96 s and 85 s
- Immobility Duration, Mean (mice; 0.1 mg/kg intraperitoneal): 90 s
- Immobility Duration, individual mice (mice; 0.3 mg/kg intraperitoneal): 93 s and 23 s and 102 s and 110 s and 106 s and 98 s and 120 s and 114 s and 109 s and 115 s
- Immobility Duration, Mean (mice; 0.3 mg/kg intraperitoneal): 99 s
- Immobility Duration, individual mice (mice; 1 mg/kg intraperitoneal): 34 sec and 51 sec (2×) and 35 sec and 19 sec and 81 sec and 50 sec and 29 sec and 66 sec and 87 sec
- Immobility Duration, Mean (mice; 1 mg/kg intraperitoneal): 50 s
- Immobility Duration, individual mice (mice; 3 mg/kg intraperitoneal): 3 sec and 17 sec and 5 sec and 0 sec (3×) and 40 sec and 26 sec and 12 sec and 49 sec
- Immobility Duration, Mean (mice; 3 mg/kg intraperitoneal): 15 s

Structure (SMILES): CNCCCC1c2ccccc2C=Cc2ccccc21 [protriptyline]
- inhibition of DA uptake ([2]; Table 6): — (— <50% inhibition)

Structure (SMILES): CN1CCN(C(=O)O[C@H]2c3nccnc3C(=O)N2c2ccc(Cl)cn2)CC1 [Eszopiclone, (+) 6-(5-chloropyrid-2-yl)-5-(4-methylpiperazin-1-yl)carbonyloxy-7-oxo-6,7-dihydro-5H-pyrrolo[3-4-b]pyrazine]
- Nocturnal Awakenings due to Hot Flashes, Change from Baseline, 25th Percentile ([3]; DB Average): −1.1
- Nocturnal Awakenings due to Hot Flashes, Change from Baseline, 75th Percentile ([3]; DB Average): 0.0
- Nocturnal Awakenings due to Hot Flashes, Change from Baseline, Maximum ([3]; DB Average): 1.5
- Nocturnal Awakenings due to Hot Flashes, Change from Baseline, Mean (SD) ([3]; DB Average): −0.7 (1.0)
- Nocturnal Awakenings due to Hot Flashes, Change from Baseline, Median ([3]; DB Average): −0.5
- Nocturnal Awakenings due to Hot Flashes, Change from Baseline, Minimum ([3]; DB Average): −6.0
- Nocturnal Awakenings due to Hot Flashes, Observed Value, 25th Percentile ([3]; DB Average): 0.0
- Nocturnal Awakenings due to Hot Flashes, Observed Value, 75th Percentile ([3]; DB Average): 0.9
- Nocturnal Awakenings due to Hot Flashes, Observed Value, Maximum ([3]; DB Average): 2.7
- Nocturnal Awakenings due to Hot Flashes, Observed Value, Mean (SD) ([3]; DB Average): 0.5 (0.6)
- Nocturnal Awakenings due to Hot Flashes, Observed Value, Median ([3]; DB Average): 0.2
- Nocturnal Awakenings due to Hot Flashes, Observed Value, Minimum ([3]; DB Average): 0.0
- Nocturnal Awakenings due to Hot Flashes, Change from Baseline, Least Squares Means (SE) ([3]; DB Average): −0.7 (0.1)
- Nocturnal Awakenings due to Hot Flashes, Observed Value, Least Squares Means (SE) ([3]; DB Average): 0.5 (0.1)
- Nocturnal Awakenings due to Hot Flashes, Change from Baseline, 25th Percentile ([3]; Week 1): −1.2
- Nocturnal Awakenings due to Hot Flashes, Change from Baseline, 75th Percentile ([3]; Week 1): 0.0
- Nocturnal Awakenings due to Hot Flashes, Change from Baseline, Maximum ([3]; Week 1): 0.8
- Nocturnal Awakenings due to Hot Flashes, Change from Baseline, Mean (SD) ([3]; Week 1): −0.7 (1.0)
- Nocturnal Awakenings due to Hot Flashes, Change from Baseline, Median ([3]; Week 1): −0.5
- Nocturnal Awakenings due to Hot Flashes, Change from Baseline, Minimum ([3]; Week 1): −6.0
- Nocturnal Awakenings due to Hot Flashes, Observed Value, 25th Percentile ([3]; Week 1): 0.0
- Nocturnal Awakenings due to Hot Flashes, Observed Value, 75th Percentile ([3]; Week 1): 1.0
- Nocturnal Awakenings due to Hot Flashes, Observed Value, Maximum ([3]; Week 1): 3.0
- Nocturnal Awakenings due to Hot Flashes, Observed Value, Mean (SD) ([3]; Week 1): 0.5 (0.7)
- Nocturnal Awakenings due to Hot Flashes, Observed Value, Median ([3]; Week 1): 0.2
- Nocturnal Awakenings due to Hot Flashes, Observed Value, Minimum ([3]; Week 1): 0.0
- Nocturnal Awakenings due to Hot Flashes, Change from Baseline, Least Squares Means (SE) ([3]; Week 1): −0.7 (0.1)
- Nocturnal Awakenings due to Hot Flashes, Observed Value, Least Squares Means (SE) ([3]; Week 1): 0.5 (0.1)
- Nocturnal Awakenings due to Hot Flashes, Observed Value, Least Squares Means (SE) ([3]; Week 1, listed as ESZ): 0.3
- Nocturnal Awakenings due to Hot Flashes, Change from Baseline, 25th Percentile ([3]; Week 2): −1.0
- Nocturnal Awakenings due to Hot Flashes, Change from Baseline, 75th Percentile ([3]; Week 2): 0.0
- Nocturnal Awakenings due to Hot Flashes, Change from Baseline, Maximum ([3]; Week 2): 2.0
- Nocturnal Awakenings due to Hot Flashes, Change from Baseline, Mean (SD) ([3]; Week 2): −0.7 (1.0)
- Nocturnal Awakenings due to Hot Flashes, Change from Baseline, Median ([3]; Week 2): −0.6
- Nocturnal Awakenings due to Hot Flashes, Change from Baseline, Minimum ([3]; Week 2): −6.0
- Nocturnal Awakenings due to Hot Flashes, Observed Value, 25th Percentile ([3]; Week 2): 0.0
- Nocturnal Awakenings due to Hot Flashes, Observed Value, 75th Percentile ([3]; Week 2): 1.0
- Nocturnal Awakenings due to Hot Flashes, Observed Value, Maximum ([3]; Week 2): 3.0
- Nocturnal Awakenings due to Hot Flashes, Observed Value, Mean (SD) ([3]; Week 2): 0.5 (0.7)
- Nocturnal Awakenings due to Hot Flashes, Observed Value, Median ([3]; Week 2): 0.0
- Nocturnal Awakenings due to Hot Flashes, Observed Value, Minimum ([3]; Week 2): 0.0
- Nocturnal Awakenings due to Hot Flashes, Change from Baseline, Least Squares Means (SE) ([3]; Week 2): −0.6 (0.1)
- Nocturnal Awakenings due to Hot Flashes, Observed Value, Least Squares Means (SE) ([3]; Week 2): 0.5 (0.1)
- Nocturnal Awakenings due to Hot Flashes, Change from Baseline, 25th Percentile ([3]; Week 3): −1.0
- Nocturnal Awakenings due to Hot Flashes, Change from Baseline, 75th Percentile ([3]; Week 3): 0.0
- Nocturnal Awakenings due to Hot Flashes, Change from Baseline, Maximum ([3]; Week 3): 1.5
- Nocturnal Awakenings due to Hot Flashes, Change from Baseline, Mean (SD) ([3]; Week 3): −0.7 (1.1)
- Nocturnal Awakenings due to Hot Flashes, Change from Baseline, Median ([3]; Week 3): −0.4
- Nocturnal Awakenings due to Hot Flashes, Change from Baseline, Minimum ([3]; Week 3): −6.0
- Nocturnal Awakenings due to Hot Flashes, Observed Value, 25th Percentile ([3]; Week 3): 0.0
- Nocturnal Awakenings due to Hot Flashes, Observed Value, 75th Percentile ([3]; Week 3): 1.0
- Nocturnal Awakenings due to Hot Flashes, Observed Value, Maximum ([3]; Week 3): 3.0
- Nocturnal Awakenings due to Hot Flashes, Observed Value, Mean (SD) ([3]; Week 3): 0.5 (0.7)
- Nocturnal Awakenings due to Hot Flashes, Observed Value, Median ([3]; Week 3): 0.0
- Nocturnal Awakenings due to Hot Flashes, Observed Value, Minimum ([3]; Week 3): 0.0
- Nocturnal Awakenings due to Hot Flashes, Change from Baseline, Least Squares Means (SE) ([3]; Week 3): −0.6 (0.1)
- Nocturnal Awakenings due to Hot Flashes, Observed Value, Least Squares Means (SE) ([3]; Week 3): 0.5 (0.1)
- Nocturnal Awakenings due to Hot Flashes, Change from Baseline, 25th Percentile ([3]; Week 4): −1.3
- Nocturnal Awakenings due to Hot Flashes, Change from Baseline, 75th Percentile ([3]; Week 4): 0.0
- Nocturnal Awakenings due to Hot Flashes, Change from Baseline, Maximum ([3]; Week 4): 2.1
- Nocturnal Awakenings due to Hot Flashes, Change from Baseline, Mean (SD) ([3]; Week 4): −0.8 (1.2)
- Nocturnal Awakenings due to Hot Flashes, Change from Baseline, Median ([3]; Week 4): −0.7
- Nocturnal Awakenings due to Hot Flashes, Change from Baseline, Minimum ([3]; Week 4): −6.0
- Nocturnal Awakenings due to Hot Flashes, Observed Value, 25th Percentile ([3]; Week 4): 0.0
- Nocturnal Awakenings due to Hot Flashes, Observed Value, 75th Percentile ([3]; Week 4): 1.0
- Nocturnal Awakenings due to Hot Flashes, Observed Value, Maximum ([3]; Week 4): 3.6
- Nocturnal Awakenings due to Hot Flashes, Observed Value, Mean (SD) ([3]; Week 4): 0.4 (0.7)
- Nocturnal Awakenings due to Hot Flashes, Observed Value, Median ([3]; Week 4): 0.0
- Nocturnal Awakenings due to Hot Flashes, Observed Value, Minimum ([3]; Week 4): 0.0
- Nocturnal Awakenings due to Hot Flashes, Change from Baseline, Least Squares Means (SE) ([3]; Week 4): −0.7 (0.1)
- Nocturnal Awakenings due to Hot Flashes, Observed Value, Least Squares Means (SE) ([3]; Week 4): 0.4 (0.1)
- Physician Global Assessment, Change from Baseline, 25th Percentile [4]: −2.0
- Physician Global Assessment, Change from Baseline, 75th Percentile [4]: 0.0
- Physician Global Assessment, Change from Baseline, Maximum [4]: 6.0
- Physician Global Assessment, Change from Baseline, Mean (SD) [4]: −1.0 (1.4)
- Physician Global Assessment, Change from Baseline, Median [4]: −1.0
- Physician Global Assessment, Change from Baseline, Minimum [4]: −4.0
- Physician Global Assessment, Change from Baseline, Least Squares Means (SE) ([4]; ANCOVA): −0.9 (0.1)
- Physician Global Assessment, Observed Value, Least Squares Means (SE) [4]: 2.7 (0.1)
- Physician Global Assessment, Observed Value, Least Squares Means (SE) ([4]; listed as ESZ): 2.7
- Physician Global Assessment, Observed Value, 25th Percentile [4, 6]: 2.0
- Physician Global Assessment, Observed Value, 75th Percentile [4, 6]: 4.0
- Physician Global Assessment, Observed Value, Maximum [4, 6]: 6.0
- Physician Global Assessment, Observed Value, Mean (SD) [4, 6]: 2.6 (1.2)
- Physician Global Assessment, Observed Value, Median [4, 6]: 2.0
- Physician Global Assessment, Observed Value, Minimum [4, 6]: 1.0

Structure (SMILES): Fc1ccc(C(OCCN2CCN(CCCc3ccccc3)CC2)c2ccc(F)cc2)cc1 [GBR 12909]
- inhibition of 5-HT uptake [5]: — (— <50% inhibition)
- inhibition of NE uptake ([1]; Table 6, tested initially at 10 μM): — (— <50% inhibition)
